Experimental data published in patent publication US12275745B2, “Therapeutic compounds and methods of use” (Genentech, Inc., priority 2021, dated 2025).
pIC50: −log10 of the molar value.

Experiments:
TEAD1 = TEAD1 (Homo sapiens, UniProt P28347); experiment: TR-FRET (Lipid HTRF) TEAD lipid pocket probe displacement assay, TEAD1; format: binding; details: His-tagged TEAD1, biotinylated lipid pocket probe, 4 hours
TEAD4 = TEAD4 (Homo sapiens, UniProt Q15561); experiment: TR-FRET (Lipid HTRF) TEAD lipid pocket probe displacement assay, TEAD4; format: binding; details: His-tagged TEAD4, biotinylated lipid pocket probe, 4 hours
TEAD3 = TEAD3 (Homo sapiens, UniProt Q99594); experiment: TR-FRET (Lipid HTRF) TEAD lipid pocket probe displacement assay, TEAD3; format: binding; details: His-tagged TEAD3, biotinylated lipid pocket probe, 4 hours
Protocol: His-tagged TEAD proteins are pre-incubated with TEAD project compounds for 30 minutes or 4 hours at room temperature. Biotinylated lipid pocket probes are then added to the TEAD/Compound mixture and incubated for 60 minutes at room temperature. The lipid pocket probe competes with the test compound for the TEAD lipid pocket until equilibrium is reached. After 60 minutes, Europium labelled anti-His (Perkin Elmer #AD0110) and XL665 labelled streptavidin (CIS Bio 610SAXAC) are added to the TEAD/test compound/lipid pocket mixture and incubated for 30 minutes or 4 hours. TR-FRET values are then measured using an EnVision multi-label plate reader (Perkin Elmer Cat #2104-001 0A.) If the lipid pocket probe binds to TEAD as expected, a TR-FRET signal results from the proximity of anti-His Eu and XL665. If a TEAD lipid pocket binder such as binds and displaces the lipid pocket probe, the disruption of the TEAD:probe interaction results in a decrease in TR-FRET signal. The potency of compounds as TEAD lipid pocket binders is determined by IC50 value generated using a non-linear 4 parameter curve fit.

TEAD2 = TEAD2 (Homo sapiens, UniProt Q15562); experiment: biochemical;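 note: TR-FRET competition assay with His-tagged TEAD protein and a biotinylated lipid pocket probe, where probe displacement by compound lowers the signal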
TEAD2, sequence (Q15562 whole entry, species assumed): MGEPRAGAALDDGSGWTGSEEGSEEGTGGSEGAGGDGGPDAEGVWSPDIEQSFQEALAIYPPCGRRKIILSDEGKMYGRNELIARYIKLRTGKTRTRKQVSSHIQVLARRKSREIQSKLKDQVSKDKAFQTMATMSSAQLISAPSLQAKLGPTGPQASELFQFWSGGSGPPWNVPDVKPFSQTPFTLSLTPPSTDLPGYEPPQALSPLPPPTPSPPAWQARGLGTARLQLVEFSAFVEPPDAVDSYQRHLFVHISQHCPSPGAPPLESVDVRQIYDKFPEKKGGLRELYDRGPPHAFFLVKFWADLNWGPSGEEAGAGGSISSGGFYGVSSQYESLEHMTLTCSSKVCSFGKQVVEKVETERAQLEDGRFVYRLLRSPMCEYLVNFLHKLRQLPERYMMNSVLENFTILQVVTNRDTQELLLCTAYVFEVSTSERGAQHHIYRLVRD

TEAD3, sequence (Q99594 whole entry, species assumed): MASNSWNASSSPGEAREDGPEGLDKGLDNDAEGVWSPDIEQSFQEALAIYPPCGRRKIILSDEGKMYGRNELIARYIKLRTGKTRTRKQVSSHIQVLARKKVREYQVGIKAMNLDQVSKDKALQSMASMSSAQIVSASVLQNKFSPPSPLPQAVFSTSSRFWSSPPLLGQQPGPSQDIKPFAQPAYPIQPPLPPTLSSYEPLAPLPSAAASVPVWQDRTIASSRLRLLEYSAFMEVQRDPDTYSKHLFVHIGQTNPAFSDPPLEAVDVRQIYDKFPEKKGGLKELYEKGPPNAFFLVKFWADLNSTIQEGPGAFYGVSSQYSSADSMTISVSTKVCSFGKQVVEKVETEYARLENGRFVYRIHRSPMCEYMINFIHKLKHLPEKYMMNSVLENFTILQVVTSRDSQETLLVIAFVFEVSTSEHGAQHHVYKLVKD
TEAD4, sequence (Q15561 whole entry, species assumed): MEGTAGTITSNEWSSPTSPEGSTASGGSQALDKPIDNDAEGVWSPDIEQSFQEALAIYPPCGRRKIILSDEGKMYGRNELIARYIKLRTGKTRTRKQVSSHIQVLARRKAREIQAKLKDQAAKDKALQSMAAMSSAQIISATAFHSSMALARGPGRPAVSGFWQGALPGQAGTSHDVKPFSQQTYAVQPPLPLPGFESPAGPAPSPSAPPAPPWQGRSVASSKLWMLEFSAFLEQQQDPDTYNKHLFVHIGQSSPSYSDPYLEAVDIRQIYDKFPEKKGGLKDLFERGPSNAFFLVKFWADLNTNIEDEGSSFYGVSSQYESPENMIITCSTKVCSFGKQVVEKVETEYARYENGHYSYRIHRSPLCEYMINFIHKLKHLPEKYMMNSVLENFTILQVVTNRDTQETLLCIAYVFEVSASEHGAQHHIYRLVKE
TEAD1, sequence (P28347 whole entry, species assumed): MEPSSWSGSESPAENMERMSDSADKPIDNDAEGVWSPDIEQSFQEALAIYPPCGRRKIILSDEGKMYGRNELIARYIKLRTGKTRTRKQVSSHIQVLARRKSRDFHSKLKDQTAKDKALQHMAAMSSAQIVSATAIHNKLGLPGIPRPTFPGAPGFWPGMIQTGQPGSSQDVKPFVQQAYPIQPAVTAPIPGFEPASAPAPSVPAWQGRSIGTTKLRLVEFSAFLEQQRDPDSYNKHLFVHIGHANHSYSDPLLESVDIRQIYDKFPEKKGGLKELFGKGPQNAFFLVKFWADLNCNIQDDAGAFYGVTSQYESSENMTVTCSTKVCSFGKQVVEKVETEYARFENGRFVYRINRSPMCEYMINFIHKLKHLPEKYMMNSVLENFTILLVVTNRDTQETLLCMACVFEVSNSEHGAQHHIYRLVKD

Compound | pIC50 (TEAD1) | pIC50 (TEAD4) | pIC50 (TEAD3) | pIC50 (TEAD2)
C=CC(=O)N(C)Cc1cc(-c2ccc(OC(F)(F)F)cc2)c2c(c1C#N)CCO2 [Compound 95, N-((4-cyano-7-(4-(trifluoromethoxy)phenyl)-2,3-dihydrobenzofuran-5-yl)methyl)-N-methylacrylamide] | 8.07 | 8.42 | 8.02 | 8.06
C=CC(=O)N(CC)Cc1nc(-c2ccc(OC(F)(F)F)cc2)c2ncsc2n1 [Compound 98, N-Ethyl-N-((7-(4-(trifluoromethoxy)phenyl)thiazolo[5,4-d]pyrimidin-5-yl)methyl)acrylamide] | 6.15 | 7.32 | 6.17 | 6.85
C=CC(=O)N1CC(c2nc(-c3ccc(OC(F)(F)F)cc3)c3ncsc3n2)C1 [Compound 99, 1-(3-(7-(4-(Trifluoromethoxy)phenyl)thiazolo[5,4-d]pyrimidin-5-yl)azetidin-1-yl)prop-2-en-1-one] | 8.43 | 8.57 | 8.51 | 8.37
C=CC(=O)NCc1nc(C23CC(C(C)C)(C2)C3)c2ncsc2n1 [Compound 102, N-((7-(3-Isopropylbicyclo[1.1.1]pentan-1-yl)thiazolo[5,4-d]pyrimidin-5-yl)methyl)acrylamide] | 6.92 | 7.64 | 6.96 | 6.51
C=CC(=O)NCc1cc(-c2ccc(OC(F)(F)F)cc2)c2ncsc2c1-c1noc(=O)[nH]1 [Compound 104, N-((7-(5-Oxo-4,5-dihydro-1,2,4-oxadiazol-3-yl)-4-(4-(trifluoromethoxy)phenyl)benzo[d]thiazol-6-yl)methyl)acrylamide] | 7.02 | 7.40 | 7.57 | 7.10
C=CC(=O)NCc1cc(-c2ccc(OC(F)(F)F)cc2)c2ncoc2c1CO [Compound 113, N-((7-(Hydroxymethyl)-4-(4-(trifluoromethoxy)phenyl)benzo[d]oxazol-6-yl)methyl)acrylamide] | 7.62 | 7.51 | 7.36 | 7.62
C=CC(=O)NCc1cc(-c2ccc(OC(F)(F)F)nc2)c2ncoc2c1CO [Compound 114, N-((7-(Hydroxymethyl)-4-(6-(trifluoromethoxy)pyridin-3-yl)benzo[d]oxazol-6-yl)methyl)acrylamide] | 6.32 | 6.13 | 6.15 | 6.46
C=CC(=O)NC1CN(c2nc(-c3ccc(OC(F)(F)F)cc3)c3ncn(C)c3n2)C1 [Compound 127, N-(1-(9-Methyl-6-(4-(trifluoromethoxy)phenyl)-9H-purin-2-yl)azetidin-3-yl)acrylamide] | 7.59 | 7.64 | 6.38 | 7.55
Cn1cnc2c(-c3ccc(OC(F)(F)F)cc3)nc(C3(C#N)CN(C(=O)/C=C/CO)C3)nc21 [Compound 128, (E)-1-(4-Hydroxybut-2-enoyl)-3-(9-methyl-6-(4-(trifluoromethoxy)phenyl)-9H-purin-2-yl)azetidine-3-carbonitrile] | 7.96 | 8.57 | 8.00 | 7.68
C=C1CCN(Cc2nc(-c3ccc(OC(F)(F)F)cc3)c3ncn(C)c3n2)C1=O [Compound 129, 1-((9-Methyl-6-(4-(trifluoromethoxy)phenyl)-9H-purin-2-yl)methyl)-3-methylenepyrrolidin-2-one] | 6.22 | 7.61 | 5.87 | 5.96
C=CC(=O)NCc1nc(N2CCC(C(F)(F)F)CC2)c2ncn(C)c2n1 [Compound 130, N-((9-Methyl-6-(4-(trifluoromethyl)piperidin-1-yl)-9H-purin-2-yl)methyl)acrylamide] | 6.39 | 6.85 | 6.36 | 6.00
C=CC(=O)NCc1nc(N2CCC(OC(F)(F)F)CC2)c2ncn(C)c2n1 [Compound 131, N-((9-Methyl-6-(4-(trifluoromethoxy)piperidin-1-yl)-9H-purin-2-yl)methyl)acrylamide] | 6.40 | 7.09 | 5.92 | 5.80
C=C(F)C(=O)N1CC(c2nc(-c3ccc(OC(F)(F)F)cc3)c3ncn(C(F)F)c3n2)C1 [Compound 132, 1-(3-(9-(Difluoromethyl)-6-(4-(trifluoromethoxy)phenyl)-9H-purin-2-yl)azetidin-1-yl)-2-fluoroprop-2-en-1-one] | 8.16 | 7.62 | 7.00 | 6.82
C=CC(=O)NCc1nc(-c2ccc(OC(F)(F)F)cc2)nc2c1ncn2C [Compound 133, N-((9-Methyl-2-(4-(trifluoromethoxy)phenyl)-9H-purin-6-yl)methyl)acrylamide] | 7.28 | 7.55 | 6.38 | 6.44

Results, then the compound that gave them:

pIC50 (TEAD1) | pIC50 (TEAD4) | pIC50 (TEAD3) | pIC50 (TEAD2) | Compound
6.70 | 6.19 | 6.51 | 5.77 | C=C(F)C(=O)N1CC(n2cc(-c3ccc(OC(F)(F)F)cc3)c3nccnc3c2=O)C1 [Compound 134, 6-(1-(2-Fluoroacryloyl)azetidin-3-yl)-8-(4-(trifluoromethoxy)phenyl)pyrido[3,4-b]pyrazin-5(6H)-one]
7.74 | 7.92 | 7.33 | 7.52 | C=C(F)C(=O)N1CC(n2cc(-c3ccc(OC(F)(F)F)cc3)c3ncn(C)c3c2=O)C1 [Compound 136, 5-(1-(2-Fluoroacryloyl)azetidin-3-yl)-3-methyl-7-(4-(trifluoromethoxy)phenyl)-3,5-dihydro-4H-imidazo[4,5-c]pyridin-4-one]
7.12 | 7.85 | 7.02 | 7.03 | Cn1cnc2c(-c3ccc(OC(F)(F)F)cc3)cn(C3CN(C(=O)/C=C/CO)C3)c(=O)c21 [Compound 137, (E)-5-(1-(4-Hydroxybut-2-enoyl)azetidin-3-yl)-3-methyl-7-(4-(trifluoromethoxy)phenyl)-3,5-dihydro-4H-imidazo[4,5-c]pyridin-4-one]
7.57 | 7.37 | 5.52 | 7.33 | C=CC(=O)NCc1cc(-c2ccc(OC(F)(F)F)cc2)c2ncn(C)c2c1NCCO [Compound 140, N-((7-((2-Hydroxyethyl)amino)-1-methyl-4-(4-(trifluoromethoxy)phenyl)-1H-benzo[d]imidazol-6-yl)methyl)acrylamide]
7.24 | 7.82 | 5.80 | 7.01 | C=C(NC(=O)c1cc(-c2ccc(OC(F)(F)F)cc2)c2ncn(C)c2c1)C(=O)OC [Compound 141, Methyl 2-(1-methyl-4-(4-(trifluoromethoxy)phenyl)-1H-benzo[d]imidazole-6-carboxamido)acrylate]
7.59 | 8.02 | 7.16 | 7.66 | C=CC(=O)NCc1cc(-c2ccc(OC(F)(F)F)cc2F)c2ncn(C)c2c1C#N [Compound 143, N-((7-Cyano-4-(2-fluoro-4-(trifluoromethoxy)phenyl)-1-methyl-1H-benzo[d]imidazol-6-yl)methyl)acrylamide]
7.03 | 7.64 | 5.89 | 7.41 | C=CC(=O)N(C)CCc1cc(-c2ccc(OC(F)(F)F)cc2)c2ncn(C)c2c1C#N [Compound 144, N-(2-(7-Cyano-1-methyl-4-(4-(trifluoromethoxy)phenyl)-1H-benzo[d]imidazol-6-yl)ethyl)-N-methylacrylamide]
